Experimental data taken from US20230272010A1, “ANTIBACTERIAL SYNTHETIC-BIOINFORMATIC NATURAL PRODUCTS AND USES THEREOF” (The Rockefeller University, priority 2020, published 2023).
Converted amounts (≈) assume the structure as drawn. Residues, ends and D or L forms follow the SMILES beside them.

Assays:
[1] = test system: S. aureus or B. subtilis; assay: Membrane lysis assay (SYTOX fluorescence); assay type: cell-based; settings: initial assays, FIG. 4C and 4D
[2] = test system: Bacillus subtilis, Escherichia coli, and the ESKAPE pathogens; assay: Antibacterial activity / MIC against screening panel of bacteria; assay type: cell-based; settings: panel of Gram-positive and Gram-negative bacteria, FIG. 4A
Source text: To identify antibacterial active syn-BNPs, each fraction, containing the mass of a target syn-BNP cyclic peptide against Bacillus subtilis, Escherichia coli, and the ESKAPE pathogens, was screened. ESKAPE pathogens represented the bacteria most commonly associated with antibiotic-resistant nosocomial infections: Enterococcus faecium, Staphylococcus aureus, Klebsiella pneumoniae, Acinetobacter baumannii, Pseudomonas aeruginosa, and Enterobacter cloacae (Boucher H W et al., 2009, Clin. Infect. Dis., 48:1-12).
In the initial screen, semi-pure peptides were spotted on solid growth media seeded with each bacterium. […]
Standard susceptibility assays were performed in the appropriate growth medium in 96-well microtiter plates to determine the MIC by the broth microdilution method in accordance to protocols recommended by Clinical and Laboratory Standards Institute (Weinstein MP, 2012, Methods for dilution antimicrobial susceptibility tests for bacteria that grow aerobically, 9th edition; Clinical and Laboratory Standards Institute, Wayne, Pa.). For polymyxin-supplemented assays, the MIC of polymyxin against a bacterium was first determined (lx MIC). […] The measured MICs were as follows: E. coli DH5α (0.0625 μg/mL), K. pneumoniae and P. aeruginosa (0.15 μg/mL), A. baumannii ([…]), and E. cloacae (2 μg/mL). […]

[3] = in vitro; assay type: cell-based, human; settings: human
Procedure: (§1) HeLa cells were grown in Dulbecco's Modified Eagle Medium (DMEM) supplemented with penicillin (10 units/mL), streptomycin (10 units/mL), […] (2 mM), and heat-inactivated fetal bovine serum (10% v/v) at 37° C. in a 5% CO2 atmosphere. HeLa cells were seeded into 384-well plates (500 cells per well) and incubated in DMEM at 37° C. with 5% CO2 for 16 h to allow cells to adhere. The OD570 readings were used to calculate relative growth (%) based on the positive (2 μM Taxol™, 0%) and negative (DMSO, 100%) controls. The cytotoxicity assay was performed in quadruplicate (n=4) and analyzed according to protocol reported previously (Chu Jet al., 2019, J. Am. Chem. Soc., 141:15737-15741).

[4] = test system: K. pneumoniae
[5] = test system: M. tuberculosis H37Rv; settings: highest concentration tested 12.5 μg/mL
[6] = test system: HeLa cells; assay: in vitro; assay type: cell-based, human
Procedure: as §1

[7] = test system: S. aureus farER deletion mutant
[8] = test system: S. aureus SH1000 ΔclpP; settings: clpP deletion
[9] = test system: S. aureus farER deletion mutant with constitutive overexpression of the farER effux system (pALCfarER)
[10] = test system: A. baumannii; assay: MIC determination by broth microdilution; assay type: cell-based, Acinetobacter baumannii
[11] = test system: P. aeruginosa; assay: MIC determination by broth microdilution; assay type: cell-based, Pseudomonas aeruginosa
[12] = test system: E. coli DH5α; assay: MIC determination by broth microdilution; assay type: cell-based, Escherichia coli

Question: With `CCCCCCCCCCCCCC(=O)N[C@@H]1CNC(=O)[C@@H]2CCCN2C(=O)[C@H](Cc2ccccc2)NC(=O)[C@@H](C(C)C)NC(=O)[C@H](C)NC(=O)[C@@H](CCC(N)=O)NC(=O)[C@H]2CCCN2C1=O` [SyCPA 2] (HELM PEPTIDE1{[CCCCCCCCCCCCCC(=O)[*:2]].[O=C([C@@H](CN[*:3])N[*:1])[*:2]].[dP].[dQ].A.[dV].F.P}$PEPTIDE1,PEPTIDE1,2:R3-8:R2$$$V2.0) as the compound, how does the “SYTOX or DiSC3(5) fluorescence” value [1] read?
Answer: Its value is “slight increase in either SYTOX or DiSC3(5) fluorescence”.

Question: What about the Spectrum of activity [2] of the same compound?
Answer: The Spectrum of activity was “broader Gram-positive activity”.

Question: And the IC50 [3]?
Answer: Its IC50 is 16 µg/mL (≈ 17.1 µM).

Question: Which MIC [4] does the source give for `CCCCCCCCCCCCCC(=O)N[C@H]1CCCNC(=O)[C@H](CC(C)C)NC(=O)[C@H](CCCNC(=N)N)NC(=O)[C@H]([C@@H](C)CC)NC(=O)[C@@H](CCCNC(=N)N)NC1=O` [SyCPA 63, thurinsyn] (HELM PEPTIDE1{[CCCCCCCCCCCCCC(=O)[*:2]].[Orn].[dR].I.R.L}$PEPTIDE1,PEPTIDE1,2:R3-6:R2$$$V2.0) here?
Answer: Its MIC is 8 µg/mL (≈ 9.27 µM).

Question: What about the MIC [5] of the same compound?
Answer: Its MIC is 6 µg/mL (≈ 6.95 µM).

Question: And the “Cytotoxicity (in words)” value [6]?
Answer: Its value is “minimal HeLa cell cytotoxicity”.

Question: For `CCCCCCCCCCCC1CC(=O)N[C@H](CC(C)C)C(=O)N[C@H](CN)C(=O)N[C@@H](C(C)C)C(=O)N[C@@H](CO)C(=O)N[C@@H]([C@@H](C)CC)C(=O)N1` (stereo partly drawn) [SyCPA 116, collimosyn] (HELM PEPTIDE1{I.[CCCCCCCCCCCC(CC(=O)[*:2])N[*:1]].[dL].[NC[C@@H](N[*:1])C(=O)[*:2]].V.S}$PEPTIDE1,PEPTIDE1,1:R1-6:R2$$$V2.0), which “Cytotoxicity (in words)” value [6] is on record?
Answer: The value was “showed human cell line toxicity”.

Question: What about the IC50 [3] of the same compound?
Answer: The IC50 was 11 µg/mL (≈ 15.2 µM).

Question: What about the MIC [7] of the same compound?
Answer: Its MIC is 8 µg/mL (≈ 11 µM).

Question: What about the “Resistance (MIC)” value [8] of the same compound?
Answer: Its value is greater than 128 µg/mL.

Question: And the MIC [9]?
Answer: The MIC was greater than 64 µg/mL.

Question: With `CCCCCCCCCCCC1CC(=O)N[C@H](Cc2ccccc2)C(=O)N[C@H](CCCN)C(=O)N[C@@H](C(C)C)C(=O)N[C@@H]([C@@H](C)CC)C(=O)N[C@@H](Cc2ccccc2)C(=O)N[C@@H](C)C(=O)N[C@@H](Cc2ccccc2)C(=O)N1` (stereo partly shown) [SyCPA 144, mucilasyn] (HELM PEPTIDE1{A.F.[CCCCCCCCCCCC(CC(=O)[*:2])N[*:1]].[dF].[NCCC[C@@H](N[*:1])C(=O)[*:2]].V.I.F}$PEPTIDE1,PEPTIDE1,1:R1-8:R2$$$V2.0) as the compound, how does the “Cytotoxicity (in words)” value [6] read?
Answer: The value was “lack of toxicity to human cells in vitro”.

Question: Which MIC of polymyxin [4] does the source give for polymyxin here?
Answer: The MIC of polymyxin was 0.15 µg/mL.

Question: What about the MIC of polymyxin [10] of the same compound?
Answer: The MIC of polymyxin was 0.3 μ/mL.

Question: What about the MIC of polymyxin [11] of the same compound?
Answer: Its MIC of polymyxin is 0.15 µg/mL.

Question: And the MIC of polymyxin [12]?
Answer: The MIC of polymyxin was 0.0625 µg/mL.
